Reference: patent US4914086A, “Method for treating African human and veterinary trypanosomiases” (priority 1987, dated 1990)
“Also recorded” adds a separate entry of the source.

Tests used:
T. b. brucei TREU 667 [1] = assay: CNS model, T. b. brucei TREU 667 infection in mice (Table 4); format: in vivo, Trypanosoma brucei brucei (in Swiss-Webster mice); conditions: for efficacy in CNS model in words: 100 mg/kg × 6 doses/days
Text: (§1) T. b. brucei EATRO 110 isolate was maintained as described (Bacchi, C. J., H. C. Nathan, S. H. Hutner, P. P. McCann and A. Sjoerdsma; Polyamine metabolism: a potential chemotherapeutic target in trypanosomes. Science 210: 332-334, 1980). It produces an acute, rapidly fatal parasitemia which is lethal to mice 3-5 days after inoculation. Two T. B. brucei strains, TREU 667 and LUMP 1001 developed by Jennings and coworkers (Jennings, F. W., D. D. Whitelaw and G. M. Urquhart; The relationship between duration of infection with Trypanosoma brucei in mice and the efficacy of chemotherapy. Parasitology 75: 143-153, 1977/Jennings, F. W. and G. D. Gray; Relapsed parasitemia following chemotherapy of chronic T. brucei infections in mice and its relation to cerebral trypanosomes; Contr. Microbiol. Immunol. 7 147-154, 1983) were used as CNS models. Both produce infections which are refractory to Berenil® (diminazene aceturate) and develop within 21 days after inoculation. They are not usually fatal until >40 days after inoculation. LUMP 1001 causes a more virulent CNS infection than TREU 667, and is regarded as more difficult to cure (Jennings, F. W. and G. D. Gray. Relapsed parasitemia following chemotherapy of chronic T. brucei infections in mice and its relation to cerebral trypanosomes. Contr. Microbiol. Immunol. 7 147-154, 1983).
The models for […] nervous system infections used TREU 667 and LUMP 1001 strains which were stored frozen and passaged once in rats before infection of mice. Maintenance and use of these screens were as described (Clarkson, A. B. Jr., C. J. Bacchi, G. H. Mellon, H. C. Nathan, P. P. McCann and A. Sjoerdsma. Efficacy of DFMO+blemoycin in a mouse model of central nervous system African trypanosomiasis. Proc. Natl. Acad. Sci. USA. 80: 5729-5733, 1983/Clarkson, A. B. Jr., E. J. Biene, C. J. Bacchi, P. P. McCann, S. H. Hutner and A. Sjoerdsma. New drug combination for experimental late stage African trypanosomiasis: DFMO with suramin. Am. J. Trop. Med. Hyg. 33: 1073-1077, 1984/Dube, D. K., G. Mpimbaza, A. C. Allison, E. Lederer and L. Rovis. Antitrypanosomal activity of sinefungin, Am. J. Trop. Med. Hyg. 32: 31-33, 1983/Fish, W. R., J. J. Marr, R. L. Berens, D. L. Looker, D. J. Nelson, S. LaFon and A. E. Balber. Inosine analogs as chemotherapeutic agents for African trypanosomes: metabolism in trypanosomes and efficacy in tissue culture. Anti-microb. Ag. Chemother. 27: 33-36, 1985/Clazer, R. I., and L. S. Lloyd. Effects of 8-azaadenosine and formycin on cell lethality and the synthesis and methylation of nucleic acids in human colon carcinoma cells in culture. Biochem. Pharmacol. 31: 3207-3214, 1982/Bacchi, C. J., H. C. Nathan, A. B. Clarkson, Jr., E. J. Bienen, A. J. Bitonti, P. P. McCann and A. Sjoerdsma. Activity of the ornithine decarboxylase inhibitors DL-α-difluoromethylornithine and monofluormethyldehydroornithine methylester alone and in combination with suramin against Trypanosoma brucei brucei central nervous system models, Am. J. Trop. Med. Hyg. (in press)). Briefly, groups of 100-120 mice were infected and the infections allowed to develop until day 21, when the animals were separated into groups of 10 and therapy commenced. Controls were treated with Berenil (40 mg/kg) on day 21. These always relapsed 40-70 days after treatment. Parasitemia was followed by examining tail vein blood smears once weekly. Animals which had relapsed were removed from cages. TREU 667 infections were followed >225 days after inoculation and LUMP 1001 were followed >280 days, as determined by the relapse pattern in previous work (Bacchi, C. J., H. C. Nathan, A. B. Clarkson, Jr., E. J. Bienen, A. J. Bitonti, P. P. McCann and A. Sjoerdsma. Activity of the ornithine decarboxylase inhibitors DL-α-difluoromethylornithine and monofluormethyldehydroornithine methylester alone and in combination with suramin against Trypanosoma brucei brucei central nervous system models. Am. J. Trop. Med. Hyg. (in press)). […]

T. b. brucei LUMP 1001 [2] = assay: CNS model, T. b. brucei LUMP 1001 infection in mice (Table 5); format: in vivo, Trypanosoma brucei brucei (in Swiss-Webster mice); conditions: control: Berenil 40 mg/kg on day 21
Text: as §1
The models for […] nervous system infections used TREU 667 and LUMP 1001 strains which were stored frozen and passaged once in rats before infection of mice. Maintenance and use of these screens were as described (Clarkson, A. B. Jr., C. J. Bacchi, G. H. Mellon, H. C. Nathan, P. P. McCann and A. Sjoerdsma. Efficacy of DFMO+blemoycin in a mouse model of central nervous system African trypanosomiasis. Proc. Natl. Acad. Sci. USA. 80: 5729-5733, 1983/Clarkson, A. B. Jr., E. J. Biene, C. J. Bacchi, P. P. McCann, S. H. Hutner and A. Sjoerdsma. New drug combination for experimental late stage African trypanosomiasis: DFMO with suramin. Am. J. Trop. Med. Hyg. 33: 1073-1077, 1984/Dube, D. K., G. Mpimbaza, A. C. Allison, E. Lederer and L. Rovis. Antitrypanosomal activity of sinefungin, Am. J. Trop. Med. Hyg. 32: 31-33, 1983/Fish, W. R., J. J. Marr, R. L. Berens, D. L. Looker, D. J. Nelson, S. LaFon and A. E. Balber. Inosine analogs as chemotherapeutic agents for African trypanosomes: metabolism in trypanosomes and efficacy in tissue culture. Anti-microb. Ag. Chemother. 27: 33-36, 1985/Clazer, R. I., and L. S. Lloyd. Effects of 8-azaadenosine and formycin on cell lethality and the synthesis and methylation of nucleic acids in human colon carcinoma cells in culture. Biochem. Pharmacol. 31: 3207-3214, 1982/Bacchi, C. J., H. C. Nathan, A. B. Clarkson, Jr., E. J. Bienen, A. J. Bitonti, P. P. McCann and A. Sjoerdsma. Activity of the ornithine decarboxylase inhibitors DL-α-difluoromethylornithine and monofluormethyldehydroornithine methylester alone and in combination with suramin against Trypanosoma brucei brucei central nervous system models, Am. J. Trop. Med. Hyg. (in press)). Briefly, groups of 100-120 mice were infected and the infections allowed to develop until day 21, when the animals were separated into groups of 10 and therapy commenced. Controls were treated with Berenil (40 mg/kg) on day 21. […] Parasitemia was followed by examining tail vein blood smears once weekly. Animals which had relapsed were removed from cages.

T. b. brucei TREU 667 [3] = conditions: infection developed within 21 days; cited from earlier work
T. b. brucei LUMP 1001 [4] = conditions: infection developed within 21 days; cited from earlier work
T. b. brucei EATRO 110 = assay: Drug screen, acute EATRO 110 mouse infection (Tables 1, 3); format: in vivo, Trypanosoma brucei brucei (in Swiss-Webster mice); conditions: for activity in the acute (short term) EATRO 110 model, in words: text summary
Text: as §1
(§2) Swiss-Webster (25-30 g) mice were used throughout. In the EATRO 110 model, groups of 100 mice were infected (10^5 trypanosomes/mouse) and the infection was allowed to develop 24 hours before commencing therapy. Animals were divided into groups of 5 before treatment. Cured animals survived >30 days beyond deaths of controls. All compounds were administered by i.p. injection.
Other methods as in Table 1.

in vivo = assay: in vivo
Experimental: as §2

[5] = test system: Trypanosoma brucei gambiense; conditions: bone marrow tissue culture system; cited from earlier work
[6] = test system: Trypanosoma brucei rhodesiense; conditions: bone marrow tissue culture system; cited from earlier work
Pneumocystis Carinii = conditions: tissue culture; cited from earlier work
mouse L cells = conditions: cited from earlier work
T. cruzi = conditions: previous studies; cited from earlier work
Leishmania spp = conditions: previous studies; cited from earlier work
African trypanosomes = conditions: previous studies; cited from earlier work
mammalian cells = conditions: cited from earlier work
human macrophages = conditions: cited from earlier work
T. brucei subsp. = conditions: cited from earlier work
[7] = test system: human colon carcinoma cells; conditions: cited from earlier work
[8] = Table 1, 2.5 mg/kg i.p. (9-DINO, sinefungin once daily for 3 days)
[9] = Table 1, 5 mg/kg i.p. (9-DINO, sinefungin once daily for 3 days)
[10] = Table 1, 10 mg/kg i.p. (9-DINO, sinefungin once daily for 3 days)
[11] = Table 1, 25 mg/kg i.p. (9-DINO, sinefungin once daily for 3 days)
[12] = Table 1, 50 mg/kg i.p. (9-DINO, sinefungin once daily for 3 days)
[13] = Table 1, 100 mg/kg i.p. (9-DINO, sinefungin once daily for 3 days)
[14] = Table 3, 0.05 mg/kg i.p. once daily for 3 days
[15] = Table 3, 0.1 mg/kg i.p. once daily for 3 days
[16] = Table 3, 0.25 mg/kg i.p. once daily for 3 days
[17] = Table 3, 0.5 mg/kg i.p. once daily for 3 days

N=C(N)c1ccc(N=NNc2ccc(C(=N)N)cc2)cc1 [Berenil, diminazene aceturate, reference compound]
relapse after treatment (T. b. brucei TREU 667 [1]; control: Berenil 40 mg/kg on day 21): 40 to 70 days
relapse after treatment (T. b. brucei LUMP 1001 [2]): 40 to 70 days
response of infection in words (T. b. brucei TREU 667 [3]): refractory
response of infection in words (T. b. brucei LUMP 1001 [4]): refractory

O=c1[nH]cnc2c([C@@H]3O[C@H](CO)[C@@H](O)[C@H]3O)n[nH]c12 [Formycin B, 7-hydroxypyrazolo (4,3-d) pyrimidine ribonucleoside]
curative / active dose range (T. b. brucei EATRO 110; EATRO 110, text): 5 to 100 mg/kg
# Cured/Total (T. b. brucei EATRO 110; [8]): 5/5
% Cured (T. b. brucei EATRO 110; [8]): 100%
# Cured/Total (T. b. brucei EATRO 110; [9]): 4/5
% Cured (T. b. brucei EATRO 110; [9]): 80%
# Cured/Total (T. b. brucei EATRO 110; [10]): 5/5
% Cured (T. b. brucei EATRO 110; [10]): 100%
# Cured/Total (T. b. brucei EATRO 110; [11]): 9/10
% Cured (T. b. brucei EATRO 110; [11]): 90%
# Cured/Total (T. b. brucei EATRO 110; [12]): 5/5
% Cured (T. b. brucei EATRO 110; [12]): 100%
# Cured/Total (T. b. brucei EATRO 110; [13]): 4/5
% Cured (T. b. brucei EATRO 110; [13]): 80%
# Cured/Total (T. b. brucei EATRO 110; [14]): 0/5
% Cured (T. b. brucei EATRO 110; [14]): 0%
# Cured/Total (T. b. brucei EATRO 110; [15]): 0/5
% Cured (T. b. brucei EATRO 110; [15]): 0%
# Cured/Total (T. b. brucei EATRO 110; [16]): 1/10
% Cured (T. b. brucei EATRO 110; [16]): 10%
# Cured/Total (T. b. brucei EATRO 110; [17]): 3/5
% Cured (T. b. brucei EATRO 110; [17]): 60%
relative activity of formycin B versus 9-DINO (T. b. brucei EATRO 110; comparison of activity ranges): > 10 X
activity in the acute (short term) EATRO 110 model, in words (T. b. brucei EATRO 110): most active; also recorded: extremely active
activity in the acute (short term) EATRO 110 model, in words (T. b. brucei EATRO 110; listed as formycin B): greatest activity; also recorded: more active than 9-DINO
# Cured/Total (T. b. brucei TREU 667 [1]; 5 mg/kg i.p., 7 days): 0/8
% Cured (T. b. brucei TREU 667 [1]; 5 mg/kg i.p., 7 days): 0%
Avg. Day of Relapse (Range) (T. b. brucei TREU 667 [1]; 5 mg/kg i.p., 7 days): 42 (37-49) Day
# Cured/Total (T. b. brucei TREU 667 [1]; 10 mg/kg i.p., 7 days): 0/9
% Cured (T. b. brucei TREU 667 [1]; 10 mg/kg i.p., 7 days): 0%
Avg. Day of Relapse (Range) (T. b. brucei TREU 667 [1]; 10 mg/kg i.p., 7 days): 40 (37-41) Day
# Cured/Total (T. b. brucei TREU 667 [1]; 25 mg/kg i.p., 7 days): 0/10
% Cured (T. b. brucei TREU 667 [1]; 25 mg/kg i.p., 7 days): 0%
Avg. Day of Relapse (Range) (T. b. brucei TREU 667 [1]; 25 mg/kg i.p., 7 days): 40 (37-68) Day
# Cured/Total (T. b. brucei TREU 667 [1]; 50 mg/kg i.p., 6 days): 0/10
% Cured (T. b. brucei TREU 667 [1]; 50 mg/kg i.p., 6 days): 0%
Avg. Day of Relapse (Range) (T. b. brucei TREU 667 [1]; 50 mg/kg i.p., 6 days): 34 (23-35) Day
# Cured/Total (T. b. brucei TREU 667 [1]; 100 mg/kg i.p., 6 days): 0/9
% Cured (T. b. brucei TREU 667 [1]; 100 mg/kg i.p., 6 days): 0%
Avg. Day of Relapse (Range) (T. b. brucei TREU 667 [1]; 100 mg/kg i.p., 6 days): 35 days
efficacy in CNS model in words (T. b. brucei TREU 667 [1]): not curative
efficacy in CNS model in words (T. b. brucei TREU 667 [1]; listed as formycin B): failed to protect
toxicity in words (in vivo; 100 mg/kg): toxicity was observed; also recorded: loss of hair
mortality (in vivo; mouse, in vivo, ip, 100 mg/kg): 20%
dose at which toxicity appeared (in vivo; short term model, Table 1): 100 mg/kg
activity in words [5]: active at very low concentrations; also recorded: somewhat more efficacious than 9-deazainosine
activity in words [6]: active at very low concentrations; also recorded: somewhat more efficacious than 9-deazainosine
activity in words (Pneumocystis Carinii): active
metabolism in words (mouse L cells): Mouse L cells can convert formycin B to the analogs of adenine nucleotides and incorporate the ATP analog into RNA
activity in words (T. cruzi): active
activity in words (Leishmania spp): active
activity in words (African trypanosomes): active
cleavage into ribose and purine analog moieties (mammalian cells): cannot be cleaved into ribose and purine analog moieties
metabolism in words (mammalian cells): metabolized by mammalian cells to its aminated analog formycin A
conversion to adenine nucleotide analogs / incorporation in words (human macrophages): this occurred in human macrophages
metabolism in words (T. brucei subsp.): can be aminated by T. brucei subsp. and converted to analogs of ATP

Nc1ncnc2c([C@@H]3O[C@H](CO)[C@@H](O)[C@H]3O)n[nH]c12 [formycin A]
incorporation into DNA in words [7]: can be incorporated into DNA
